This is an account of results in US20230416307A1, “[…] PEPTIDES FOR ENHANCING VIRAL PRODUCTION” (Synvivia, Inc., priority 2022, published 2023).

Assay [1] relates to AAV2. Briefly: Biological titer of AAVs packaged in cells expressing a CP (GFP-positive transduced HEK293 cells). Type of assay: cell-based, adeno-associated virus. The note with it: FIG. 20B; HEK293 transduction; cells expressing individual CP relative to no CP expression. The protocol: (§1) FIG. 20. Exemplary bar charts showing fold improvement of physical titer and/or biological titer for various CPs. […] The payload being packaged during AAV production is GFP only. The cyclic peptide generator is located on a separate DNA, is only expressed by the host cell, and is not able to be packaged. Physical titer is quantified by qPCR or ddPCR and expressed as viral genomes produced per mL (VG/ml) of AAV packaging cells and media. […] Biological titer is measured in vitro by transducing a standardized number of wild-type (WT) mammalian (HEK293) cells with diluted AAVs harvested after packaging with or without CP expression. The transductants are identified by GFP payload expression. The fold improvement is calculated by dividing the percentage of GFP expressing (transduced) cells after transduction with AAVs packaged in cells expressing a CP by the percentage of GFP expressing (transduced) cells after transduction with AAVs packaged in cells that are not expressing a CP.
HEK-293T were reseeded in a 24 well tissue culture treated plate at a density of 1-2*10^4 cells/well in 0.5 mL of DMEM with 10% FBS. Cells were cultured overnight. 10-fold serial dilutions of prepared AAV2 particle solutions using DMEM with 10% FBS were used to infect the HEK-293T cells. Dilutions ranged from 1:10 to 1:10000. On Day 3 after infection, cells were detached using Trypsin/EDTA and analyzed for eGFP expression by image-based cytometry.
(§2) 50-70% confluent HEK-293T cells (˜10^6 total cells) grown in DMEM supplemented with 5% FBS were quadruple transfected with pHelper Vector, pAAV-ZsGreenl Vector, AAVpro® Packaging Rep-Cap Plasmid (AAV2), and pTargeT Mammalian Expression Vector with cloned individual cyclic peptide generator of interest in a 1:1:1:1 molar ratio normalized to the plasmid size using JetOptimus Transfection Reagent in 100 mm TC treated petri dish. AAV preparation is conducted as described above. Biological viral titer measurement is performed as described above.
(§3) • 1. A 100-mm cell culture dish was reseeded with 4.0×10^6 Hek293T cells in high glucose DMEM culture medium supplemented with 10% FBS. • 2. One day after plating, the cells (70-80% confluence) were co-transfected with 3.2ug pRC2 which encodes Rep and Cap genes (SEQ ID NO: 1-7), 4.6ug pHelper which encodes Adenovirus helper genes (SEQ ID NO: 16-19, 22, 23), 2.2ug payload vector, and 1-100ng engineered cyclic peptide expression vector (if using). A jetOPTIMUS DNA transfection reagent i used during the transfection protocol (from Polyplus). • 3. 12-16 hours after transfection, media was replaced with low glucose DMEM culture medium supplemented with 1% FBS, 1×Glutamax, 10 mM HEPES, and 0.075% sodium bicarbonate. • 4. Cells and media were harvested 4 days after transfection and frozen in 1 mL aliquots. • 5. Frozen aliquots were thawed and lysed using AAVMax Lysis Reagent (Life Technologies, USA, A50520). 100 uL of AAVMax Lysis buffer was added to 900 uL of cell and media. Mixture was incubated for 2 hours with rotating. Debris was pelleted at 5,000xg for 15 minutes. AAV containing supernatant was collected. • 6. The physical and biological titers of the harvested AAV samples were determined by qPCR and biological viral titer measurement as described in Example 1.
The fold improvement in biological titer was calculated by dividing the percentage of GFP expressing (transduced) cells after transduction with AAVs packaged in cells expressing a CP by the percentage of GFP expressing (transduced) cells after transduction with AAVs packaged in cells that are not expressing a CP.

In assay [2] the test system is AAV2. The assay can be described thus: Physical titer (qPCR or ddPCR, VG/ml) of AAVs packaged in cells expressing a CP. The class given is cell-based, adeno-associated virus. The conditions noted are these: FIG. 20A; GFP payload; cells expressing individual CP relative to no CP expression. Here is the method:
as §1
Primers binding the eGFP reporter protein were used to measure the virus titer with quantitative polymerase chain reaction (qPCR). Before releasing the viral DNA from the particles, all extra-viral DNA was removed by digestion with DNase I. Then, the viral DNA was released by alkaline lysis. The qPCR was performed using the PowerUp™ SYBR™ Green Master Mix (Applied Biosystems), and primers against the zsGreen obtained from Integrated DNA Technologies. The extracted viral DNA and a serial dilution of a viral plasmid containing z as a standard were measured using the CFX96 Touch Real-Time PCR Detection System and the CFX Maestro Software (Bio-Rad, Hercules, CA).
as §2, §3
The physical titer fold improvement was calculated by dividing the physical titer of AAVs packaged in cells expressing a CP by the physical titer of cells that are not expressing a CP.
Background: Quantitative PCR measures a nucleic acid by following its amplification.

“CAAAS: engineered cyclic peptide, SEQ ID NO: 48 (cyclic; Cyclic peptide that was found to enhance AAV viral titer)”: the “fold improvement in biological titer of AAVs” value in the assay with AAV2 [1] is recorded as “fold improvements in biological titer”. The “fold improvement in physical titer of AAVs” value in the assay on AAV2 [2] is “fold improvements in physical titer”.

As to “CADTV: engineered cyclic peptide, SEQ ID NO: 49 (cyclic; Cyclic peptide that was found to enhance AAV viral titer)”, the “fold improvement in physical titer of AAVs” value in the assay with AAV2 [2] is “fold improvements in physical titer”.

Take “CANMPY: engineered cyclic peptide, SEQ ID NO: 50 (cyclic; Cyclic peptide that was found to enhance AAV viral titer; We observed log10 enrichment score of 2.959, mean of 79 experimental replicates. We observed excellent mean log10 enrichment scores for this cyclic peptide across multiple AAV serotypes: AAV1_3.0; AAV2_3.1; AAV5_2.8; AAV6_2.7. This CP possesses the following motifs: POL_HYD_POL-motif; HYD_ARO_POL-motif; POL_HYD_HYD-motif.)”: the “fold improvement in biological titer of AAVs” value in the assay on AAV2 [1] is “fold improvements in biological titer”.

Regarding “CARFR: engineered cyclic peptide, SEQ ID NO: 51 (cyclic; Cyclic peptide that was found to enhance AAV viral titer)”, the “fold improvement in biological titer of AAVs” value in the assay on AAV2 [1] was “fold improvements in biological titer”.

Consider “CETDV: engineered cyclic peptide, SEQ ID NO: 52 (cyclic; Cyclic peptide that was found to enhance AAV viral titer)”, for which, in the assay with AAV2 [1], the “fold improvement in biological titer of AAVs” value was “fold improvements in biological titer”.

“CKDYFS: engineered cyclic peptide expressed from a generator plasmid, SEQ ID NO: 34 (cyclic; Cyclic peptide that was found to increase AAV viral titer.)”: the “fold improvement in physical titer of AAVs” value in the assay with AAV2 [2] is “fold improvements in physical titer”.

As for “CPKNP: engineered cyclic peptide, SEQ ID NO: 53 (cyclic; Cyclic peptide that was found to enhance AAV viral titer)”, the “fold improvement in physical titer of AAVs” value in the assay on AAV2 [2] is reported as “fold improvements in physical titer”.

For “CQSRS: engineered cyclic peptide, SEQ ID NO: 54 (cyclic; Cyclic peptide that was found to enhance AAV viral titer)”, in the assay with AAV2 [2], the “fold improvement in physical titer of AAVs” value is “fold improvements in physical titer”.

For the substance “CQVTRM: engineered cyclic peptide, SEQ ID NO: 55 (cyclic; Cyclic peptide that was found to enhance AAV viral titer; We observed log10 enrichment score of 3.258, mean of 74 experimental replicates. We observed excellent mean log10 enrichment scores for this cyclic peptide across multiple AAV serotypes: AAV1_3.4; AAV2_3.3; AAV5_3.2; AAV6_3.1. Cyclo-CQVTRM possesses the following motifs: POL_HYD_POL-motif; POL_POL_HYD-motif; POS_HYD_POL-motif.)”, in the assay on AAV2 [1], the “fold improvement in biological titer of AAVs” value was “fold improvements in biological titer”. In the assay with AAV2 [2], the “fold improvement in physical titer of AAVs” value is “fold improvements in physical titer”.

With “CRRHYA: engineered cyclic peptide, SEQ ID NO: 230”, the “fold improvement in biological titer of AAVs” value with AAV2 [1] was “fold improvements in biological titer”.

In the case of “CSDPSA: engineered cyclic peptide, SEQ ID NO: 56 (cyclic; Cyclic peptide that was found to enhance AAV viral titer; We observed log10 enrichment score of 3.653, mean of 76 experimental replicates. We observed excellent mean log10 enrichment scores for this cyclic peptide across multiple AAV serotypes: AAV1_3.5; AAV2_4.0; AAV5_3.0; AAV6_3.4. Cyclo-CSDPSA possesses the following motifs: POL_HYD_POL-motif; NEG_HYD_POL-motif; POL_NEG_HYD-motif; POL_POL_NEG-m)”, the “fold improvement in biological titer of AAVs” value in the assay with AAV2 [1] is given as “fold improvements in biological titer”. Moreover, the “fold improvement in physical titer of AAVs” value in the assay on AAV2 [2] is on record as “fold improvements in physical titer”.

Turning to “CSESCP: engineered cyclic peptide, SEQ ID NO: 57 (cyclic; Cyclic peptide that was found to enhance AAV viral titer)”, the “fold improvement in biological titer of AAVs” value in the assay on AAV2 [1] is reported as “fold improvements in biological titer”. Also, the “fold improvement in physical titer of AAVs” value with AAV2 [2] is listed as “fold improvements in physical titer”.

Turning to “CSVPY: engineered cyclic peptide, SEQ ID NO: 58 (cyclic; Cyclic peptide that was found to enhance AAV viral titer)”, the “fold improvement in biological titer of AAVs” value in the assay on AAV2 [1] was “fold improvements in biological titer”.

For “CTCKK: engineered cyclic peptide, SEQ ID NO: 59 (cyclic; Cyclic peptide that was found to enhance AAV viral titer)”, the “fold improvement in physical titer of AAVs” value with AAV2 [2] is reported as “fold improvements in physical titer”.

On to “CYPLH: engineered cyclic peptide, SEQ ID NO: 60 (cyclic; Cyclic peptide that was found to enhance AAV viral titer)”, for which the “fold improvement in biological titer of AAVs” value with AAV2 [1] is “fold improvements in biological titer”. Also, the “fold improvement in physical titer of AAVs” value with AAV2 [2] is recorded as “fold improvements in physical titer”.

On to “CYSPF: engineered cyclic peptide, SEQ ID NO: 61 (cyclic; Cyclic peptide that was found to enhance AAV viral titer)”, for which the “fold improvement in biological titer of AAVs” value in the assay with AAV2 [1] is “fold improvements in biological titer”.

Turning to “CYVTTD: engineered cyclic peptide, SEQ ID NO: 62 (cyclic; Cyclic peptide that was found to enhance AAV viral titer; We observed log10 enrichment score of 3.986, mean of 70 experimental replicates. We observed excellent mean log10 enrichment scores for this cyclic peptide across multiple AAV serotypes: AAV1_4.2; AAV2_4.1; AAV5_3.6; AAV6_3.9. Cyclo-CYVTTD possesses the following motifs: ARO_HYD_POL-motif; POL_POL_NEG-motif; NEG_POL_ARO-motif.)”, the “fold improvement in biological titer of AAVs” value in the assay with AAV2 [1] was “fold improvements in biological titer”. Also, in the assay on AAV2 [2], the “fold improvement in physical titer of AAVs” value was “fold improvements in physical titer”.
